Measurements taken from PMC2410218, “Identification of an HLA-A^*0201-restricted T-cell epitope derived from the prostate cancer-associated protein prostein” (British Journal of Cancer, 2004).

Key:
LNCaP 1740 cells = assay: 51Cr release assay: peptide-activated CD8+ T cells against LNCaP 1740 cells; type: cell-based, human
Protocol: (§1) Briefly, LNCaP 1740 cells were cultured for 24 h in phenol red-free RPMI (Life Technologies) supplemented with 1% nonessential amino acids, 10 mM HEPES (Life Technologies) and 10% charcoal-stripped FCS (Biochrom). The cultivation was continued for additional 48 h in the androgen-depleted medium or in the presence of 1 nM of the synthetic androgen R1881 (Perkin-Elmer Life Sciences, Rodgau-Jügesheim, Germany). Subsequently, the cells were harvested and were used as target cells in a chromium release assay.
After washing 2 × 10^5 peptide-loaded DCs were cocultured with 2 × 10^6 immunomagnetically isolated CD8+ T cells well^−1 of a 24-well tissue culture plate (Greiner, Frickenhausen, Germany). […] After 7 days, cultures were washed and restimulated with peptide-loaded DCs at a responder to stimulator ratio of 5 : 1. After three rounds of weekly restimulation, the cultures were tested for the presence of prostein-specific CTLs.
The HLA-A2 restriction of CD8+ T-cell-mediated lysis was tested at an effector cell to target cell ratio of 30 : 1 in the presence of the anti-HLA-A2 monoclonal antibody derived from the MA2.1 hybridoma (American Type Culture Collection) at a final concentration of 1 μg ml^−1.

[1] = tested on: prostein mRNA expression in LNCaP 1740 cells; assay: Quantitative RT-PCR of prostein transcripts in LNCaP 1740 cells under androgen deprivation or stimulation; type: cell-based, human; settings: 1 nM R1881 for 48 h; real-time PCR normalised to HPRT; means of two LC runs
Protocol: as §1, with “The androgen deprivation and stimulation experiments were performed as described previously ([Xu et al, 2001]). Briefly,” for “Briefly,”
The mRNA quantity of prostein was determined using a LightCycler (LC)-based real-time PCR protocol based on SYBR Green I detection (LC – FastStart DNA Master SYBR Green I; Roche Diagnostics, Mannheim, Germany) and the primer pair Prostein_N1 (5′-[…]-3′) and Prostein_C1 (5′-[…]-3′) to amplify a 240 bp cDNA fragment spanning two exons.
The mRNA copy number was adjusted to the RT–PCR product quantity of hypoxanthine phosphoribosyltransferase (HPRT) determined by LC technique using the primer pair HPRT_N1 (5′-[…]-3′) and HPRT_C1 (5′-[…]-3′) for the amplification of a 238 bp fragment. […]

HLA-A^*0201 = target: T1, HLA-A^*0201 (Homo sapiens, UniProt P04439, D140Y/D185E/D98H/E176V/E277Q/G131W/G231S/I119V/I121R/I166T/I218V/L300P/L318F/N151K/N90K/P208A/P217A/Q86G/Q94H/R138H/R169H/T345S); assay: Fluorescence-based competition assay on B-cell lines LCL721 or JY; settings: inhibition of binding of reporter peptide ILK(FITC)EPVHGV relative to positive control peptide YLLPAIVHI set as 100%; all peptides at 10 μM; LCL721 or JY cells, no acid strip; flow cytometry
T1 construct: endogenous in cells; host or cells: B-cell lines LCL721 or JY
Protocol: Binding studies of potential HLA-A^*0201 fitting peptides were carried out using the B-cell lines LCL721 or JY and a fluorescence-based competition assay, essentially as described by [van der Burg et al (1995)], but without performing acid strip. Reporter peptide was ILK(FITC)EPVHGV from HIV-1 reverse transcriptase and positive control was […] from RNA helicase p72. Fluorescence intensities were recorded by flow cytometry (FACSCALIBUR; Becton Dickinson, Heidelberg, Germany).

[2] = tested on: T2 cells pulsed with the individual peptides; assay: 51Cr release assay: in vitro-stimulated CD8+ T cells against peptide-pulsed T2 cells; type: cell-based, human; settings: CD8+ T cells stimulated four times with peptide-pulsed autologous DCs (20 μg ml^-1 of each peptide); T2 cells pulsed at 50 μg ml^-1; E:T 20:1; 4 h 51Cr release; triplicates
Protocol: Briefly, peripheral blood mononuclear cells were prepared from blood samples by Ficoll–Hypaque (Biochrom) density centrifugation. Monocytes were isolated by immunomagnetic cell separation with an anti-CD14 antibody coupled to paramagnetic microbeads (Miltenyi Biotech, Bergisch Gladbach, Germany) according to the manufacturer's instructions. Mature monocyte-derived dendritic cells (DCs) were generated as described previously ([Schmitz et al, 2000]).
After washing 2 × 10^5 peptide-loaded DCs were cocultured with 2 × 10^6 immunomagnetically isolated CD8+ T cells well^−1 of a 24-well tissue culture plate (Greiner, Frickenhausen, Germany). […] The T cells were cultured in 2 ml RPMI 1640 medium well^−1 supplemented with 10% human serum (CCpro, Neustadt, Germany), 100 U ml^−1 IL-2 and 10 ng ml^−1 IL-7 (both from Strathmann Biotech, Hanover, Germany). After 7 days, cultures were washed and restimulated with peptide-loaded DCs at a responder to stimulator ratio of 5 : 1. After three rounds of weekly restimulation, the cultures were tested for the presence of prostein-specific CTLs. […]

K562 cells = assay: 51Cr release assay: peptide-activated CD8+ T cells against K562 cells; type: cell-based, human; settings: E:T 3:1, 10:1, 30:1; 4 h 51Cr release
Protocol: After washing 2 × 10^5 peptide-loaded DCs were cocultured with 2 × 10^6 immunomagnetically isolated CD8+ T cells well^−1 of a 24-well tissue culture plate (Greiner, Frickenhausen, Germany). […] The T cells were cultured in 2 ml RPMI 1640 medium well^−1 supplemented with 10% human serum (CCpro, Neustadt, Germany), 100 U ml^−1 IL-2 and 10 ng ml^−1 IL-7 (both from Strathmann Biotech, Hanover, Germany). After 7 days, cultures were washed and restimulated with peptide-loaded DCs at a responder to stimulator ratio of 5 : 1. After three rounds of weekly restimulation, the cultures were tested for the presence of prostein-specific CTLs.
Cytotoxic activity of the in vitro-stimulated CTLs was assayed against the HLA-A^*0201-positive mutant cell line T2 pulsed with the individual prostein-derived peptides or an irrelevant HLA-A^*0201-binding peptide from HIV-1 reverse transcriptase at a concentration of 50 μg ml^−1, against the PCa cell line LNCaP 1740, the melanoma cell line 93.04A12.1 and against K562 cells as targets in a 4 h standard ^51Cr release assay as described previously ([Kiessling et al, 2002]). The HLA-A2 restriction of CD8+ T-cell-mediated lysis was tested at an effector cell to target cell ratio of 30 : 1 in the presence of the anti-HLA-A2 monoclonal antibody derived from the MA2.1 hybridoma (American Type Culture Collection) at a final concentration of 1 μg ml^−1.

Row | Compound | T-cell-mediated cytotoxicity against LNCaP 1740 cells deprived of androgen compared with cells grown in the presence of R1881 (LNCaP 1740 cells; 1 nM R1881 for 48 h after 24 h in charcoal-stripped FCS medium, E:T 30:1, all three donors) | Prostein mRNA expression in LNCaP 1740 under androgen deprivation compared with cells cultured in the presence of R1881 [1] | rBA (%) relative binding affinity (HLA-A^*0201) [%] | Lysis of LNCaP 1740 cells by CTLs specifically recognising the peptide (LNCaP 1740 cells; HLA-A*0201-positive, prostein-expressing PCa cell line, E:T 3:1, 10:1, 30:1, 4 h 51Cr release, three donors) | Induction of peptide-specific CTLs (specific lysis of peptide-loaded T2 cells) [2] | Lysis of K562 cells by peptide-activated T cells (natural killer cell-like activity) (K562 cells)
1 | C[C@]1(O)CC[C@H]2[C@@H]3CCC4=CC(=O)CCC4=C3C=C[C@@]21C [R1881, reference compound] | clearly reduced | downregulated but still detectable |  |  |  | 
2 | ALLPRLHQL [compound 1487] |  |  | 84.1 |  |  | 
3 | CLAAGITYV [compound 2004] |  |  | 94.0 | capable of lysing | induced specific CTLs in all three donors tested | failure
